Columns and labels:
[1] = tested on: human sense of taste; assay: Determination of sweetness recognition threshold concentration by trained taste tester; type: in vivo; conditions: in water at room temperature
Protocol: The term “sweetness recognition threshold concentration,” as generally used herein, is the lowest known concentration of a sweet compound that is perceivable by the human sense of taste. The sweetness recognition threshold level is specific for a particular compound, and varies based on temperature, matrix, ingredients and/or flavor system. The sweetness recognition threshold concentrations measurements and 5% sucrose equivalence measurements described herein were determined in water at room temperature.
A sip (approximately 2-5 mL) of control sample, including but not limited to water, was tasted and swallowed by a trained taste tester. After allowing a 15-25 second interval to pass, a second sip of the control is tasted and swallowed. The taste properties of the control are determined and recorded by the trained taste tester. An unknown sample is then tasted and swallowed in the same manner, allowing a 15-25 second interval between the two sips. Preferably no more than ten additives are tested per day to avoid taste fatigue. Each sample was taken at least 1.5 hours following eating or drinking The sweetness recognition thresholds concentration of 21 steviol glycosides were determined in this manner, and are shown in Table 1.

[2] = tested on: human sense of taste; assay: Sugar-like taste quality enhancement of Stevia sweeteners by steviol glycoside additives, taste test by trained individual; type: in vivo; conditions: additive at or below its sweetness recognition threshold concentration, 5% sucrose equivalence, water, room temperature; for Taste change of Stevia Sweetener REBD (303 ppm) with Steviol Glycoside Additive: rebaudioside D 303 ppm; for Taste change of Stevia Sweetener REBA (303 ppm) with Steviol Glycoside Additive: 97% pure rebaudioside A 303 ppm;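 for Taste change of Stevia Sweetener JSS (380 ppm) with Steviol Glycoside Additive: code −B means less bitterness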
Protocol: A steviol glycoside is added in an amount at or below sweetness recognition threshold concentration to a solution of water and a Stevia sweetener. The solution is maintained at room temperature. Each sample is taste tested by a trained individual, as described in Example 1, in duplicate. Preferably no more than ten steviol glycosides are tested per day to avoid taste fatigue. Each sample was taken at least 1.5 hours following eating or drinking
The Stevia sweeteners used in this study were 97% pure rebaudioside A, JSS, and rebaudioside D.
The steviol glycosides were used in at or below sweetness recognition threshold concentrations. […]

Row | Compound | Sweetness recognition threshold Level [1] [ppm] | Sweetness recognition threshold Level ([1]; listed as rebaudioside A) | Taste change of Stevia Sweetener JSS (380 ppm) with Steviol Glycoside Additive [2] | Taste change of Stevia Sweetener REBD (303 ppm) with Steviol Glycoside Additive [2] | Sweetness recognition threshold Level ([1]; listed as rebaudioside D) | Taste change of Stevia Sweetener REBA (303 ppm) with Steviol Glycoside Additive [2] | minimal effective concentration ([1]; Homo sapiens, read-out: Sweetness recognition threshold Level) [µg/mL]
1 | C=C1C[C@@]23CC[C@H]4[C@@](C)(CCC[C@@]4(C)C(=O)O[C@@H]4O[C@H](CO)[C@@H](O)[C@H](O)[C@H]4O)[C@@H]2CC[C@]1(O[C@@H]1O[C@H](CO)[C@@H](O)[C@H](O[C@@H]2O[C@H](CO)[C@@H](O)[C@H](O)[C@H]2O)[C@H]1O[C@@H]1O[C@H](CO)[C@@H](O)[C@H](O)[C@H]1O)C3 [Rebaudioside A, rebaudioside A] | 12.6 | about 12.6 ppm | N (N: no difference in presence or absence of steviol glycoside additive;) | N (N: no difference in presence or absence of steviol glycoside additive;) |  |  | 
2 | C=C1C[C@@]23CC[C@H]4[C@@](C)(CCC[C@@]4(C)C(=O)O[C@@H]4O[C@H](CO)[C@@H](O)[C@H](O)[C@H]4O[C@@H]4O[C@H](CO)[C@@H](O)[C@H](O)[C@H]4O)[C@@H]2CC[C@]1(O[C@@H]1O[C@H](CO)[C@@H](O)[C@H](O[C@@H]2O[C@H](CO)[C@@H](O)[C@H](O)[C@H]2O)[C@H]1O[C@@H]1O[C@H](CO)[C@@H](O)[C@H](O)[C@H]1O)C3 [Rebaudioside D, rebaudioside D] | 25 |  | N (N: no difference in presence or absence of steviol glycoside additive;) |  | about 25 ppm | N (N: no difference in presence or absence of steviol glycoside additive;) | 
3 | C=C1C[C@@]23CC[C@H]4[C@@](C)(CCC[C@@]4(C)C(=O)O[C@@H]4O[C@H](CO)[C@@H](O)[C@H](O)[C@H]4O)[C@@H]2CC[C@]1(O[C@@H]1O[C@H](CO)[C@@H](O)[C@H](O)[C@H]1O)C3 [Rubusoside, rubusoside] |  |  | N (N: no difference in presence or absence of steviol glycoside additive;) | N (N: no difference in presence or absence of steviol glycoside additive;) |  | N(+) (N(+): same as “N” but slightly more;) | 50
4 | rebaudioside B | 25 |  | N (N: no difference in presence or absence of steviol glycoside additive;) | N (N: no difference in presence or absence of steviol glycoside additive;) |  | N (N: no difference in presence or absence of steviol glycoside additive;) | 

Source: patent publication US20130064955A1, “NATURAL SWEETENED COMPOSITIONS AND METHODS FOR PREPARING THE SAME” (priority 2011, published 2013)
